Source: a compilation of properties of binary mixtures (doi:10.7498/aps.66.196101)

Assay: xn = mol fraction of the nth substance listed
Details: 100 kPa

CCCC[n+]1ccccc1.N#C[N-]C#N + O
Details	electrical conductivity, x1 = 0.9189 [S/m]	electrical conductivity, x1 = 0.9335 [S/m]	electrical conductivity, x1 = 0.9486 [S/m]	electrical conductivity, x1 = 0.9642 [S/m]	electrical conductivity, x2 = 0.0198 [S/m]	viscosity, x1 = 0.9257 [mPa·s]	viscosity, x1 = 0.9415 [mPa·s]	viscosity, x1 = 0.9569 [mPa·s]	viscosity, x1 = 0.9726 [mPa·s]	viscosity, x2 = 0.0111 [mPa·s]
298.15 K	1.03	0.997	0.968	–	0.903	28.23	29.04	–	31.13	32.25
303.15 K	–	–	–	1.08	1.06	23.59	24.03	–	25.61	26.58
308.15 K	1.41	1.38	1.34	1.29	1.26	19.79	20.18	20.75	21.47	22.17
313.15 K	1.65	1.6	1.57	–	1.5	–	17.11	–	18.19	18.73
318.15 K	1.93	–	1.85	1.81	1.76	–	14.67	15	–	16.14
323.15 K	2.32	2.26	2.18	2.11	2.05	12.11	12.4	–	13.13	–
328.15 K	2.51	2.47	2.42	2.36	2.3	–	–	11.08	11.44	11.84
333.15 K	2.85	2.81	–	–	2.65	9.38	9.57	–	10.1	10.43
338.15 K	3.22	3.16	3.1	3.05	2.99	8.34	–	8.65	8.93	9.19

CCn1cc[n+](C)c1.N[C@@H](CO)C(=O)[O-] + O
electrical conductivity [S/m]
Details	303.15 K	308.15 K	313.15 K	318.15 K	323.15 K	328.15 K	333.15 K	338.15 K
x1 = 0.8695	0.102	0.14	0.176	–	0.276	0.348	–	0.526
x1 = 0.8836	0.1	0.138	0.174	–	0.273	–	–	0.522
x1 = 0.8982	0.0982	0.135	0.172	0.218	0.271	0.343	0.429	0.518
x1 = 0.9131	0.0964	–	–	0.216	–	0.341	0.426	0.515
x1 = 0.9275	–	0.13	–	0.213	0.266	0.338	0.423	–

CCCCC[n+]1ccccc1.N#C[N-]C#N + O
Details	electrical conductivity, x1 = 0.9199 [S/m]	electrical conductivity, x1 = 0.9356 [S/m]	electrical conductivity, x1 = 0.9518 [S/m]	electrical conductivity, x1 = 0.9685 [S/m]	electrical conductivity, x2 = 0.0142 [S/m]	viscosity, x1 = 0.9199 [mPa·s]	viscosity, x1 = 0.9345 [mPa·s]	viscosity, x1 = 0.9518 [mPa·s]	viscosity, x1 = 0.9674 [mPa·s]	viscosity, x2 = 0.0154 [mPa·s]
298.15 K	0.687	–	0.648	0.63	0.611	41	42.1	43.4	44.7	45.9
303.15 K	0.865	–	0.798	0.761	0.719	33.3	34.1	35.1	36	37
308.15 K	1.08	1.03	–	0.926	0.873	27.4	28.1	–	–	30.4
313.15 K	–	1.19	1.13	1.09	1.03	–	23.49	24.01	24.6	25.4
318.15 K	1.42	1.39	1.33	–	–	19.45	19.85	20.32	20.87	21.39
323.15 K	–	1.6	1.55	–	1.43	–	–	16.27	–	–
328.15 K	1.86	–	1.76	1.7	–	13.96	–	14.48	14.81	–
333.15 K	2.08	2.03	1.97	1.92	1.88	12.2	12.43	12.69	12.99	13.26
338.15 K	2.34	2.29	–	2.17	2.12	10.78	10.9	–	11.32	11.64

CCCC[n+]1ccn(C)c1.N[C@@H](CO)C(=O)[O-] + O
Details	electrical conductivity, x1 = 0.8285 [S/m]	electrical conductivity, x1 = 0.843 [S/m]	electrical conductivity, x1 = 0.8591 [S/m]	electrical conductivity, x1 = 0.8757 [S/m]	electrical conductivity, x1 = 0.8918 [S/m]	viscosity, x1 = 0.852 [mPa·s]	viscosity, x1 = 0.8736 [mPa·s]	viscosity, x1 = 0.894 [mPa·s]	viscosity, x1 = 0.9165 [mPa·s]	viscosity, x1 = 0.9388 [mPa·s]
298.15 K	0.0076	0.0071	0.0068	0.0065	–	5107	5135	–	–	5270
303.15 K	0.0118	0.0111	–	–	0.0097	2975	3000	–	3073	3147
308.15 K	0.0196	0.0183	0.017	0.016	0.0151	1828	1843	1868	1897	1952
313.15 K	0.0293	0.028	0.0261	0.0247	0.0237	1135	1159	–	1231	–
318.15 K	0.0423	0.0402	0.0375	0.0357	0.0341	753	768	790	822	870
323.15 K	0.0597	0.0565	0.0534	0.0511	0.0488	523	532	544	566	597
328.15 K	0.0817	–	–	0.0703	0.0679	–	352	–	388	–
333.15 K	–	0.106	–	0.0958	0.0921	247	255	266	279	304
338.15 K	0.146	0.14	–	0.127	0.122	–	187.4	197	212	229

CCC[n+]1ccccc1.N#C[N-]C#N + O
Details	electrical conductivity, x1 = 0.9305 [S/m]	electrical conductivity, x1 = 0.9444 [S/m]	electrical conductivity, x1 = 0.9588 [S/m]	electrical conductivity, x1 = 0.9735 [S/m]	electrical conductivity, x2 = 0.0114 [S/m]	viscosity, x1 = 0.9277 [mPa·s]	viscosity, x1 = 0.9416 [mPa·s]	viscosity, x1 = 0.9559 [mPa·s]	viscosity, x1 = 0.9705 [mPa·s]	viscosity, x2 = 0.0144 [mPa·s]
298.15 K	–	1.44	1.41	1.37	1.34	20.93	21.6	–	–	24.55
303.15 K	–	–	1.61	–	1.53	17.56	18.05	18.78	19.65	20.53
308.15 K	2.03	1.97	1.91	1.86	1.81	15.11	15.43	15.97	16.69	17.49
313.15 K	2.35	2.3	2.23	2.17	–	–	13.31	–	14.28	14.87
318.15 K	2.64	–	2.57	2.52	2.47	11.38	11.63	11.99	–	12.93
323.15 K	2.98	–	2.92	–	2.84	–	9.95	10.29	10.68	11.07
328.15 K	3.42	3.38	3.33	3.29	3.25	8.53	–	–	9.21	9.66
333.15 K	3.88	–	3.77	–	3.68	7.65	7.77	7.97	8.23	8.57
338.15 K	4.31	4.27	–	4.17	4.11	6.91	7.01	–	7.41	7.68

CCCn1cc[n+](C)c1.N[C@@H](CO)C(=O)[O-] + O
Details	electrical conductivity, x1 = 0.8651 [S/m]	electrical conductivity, x1 = 0.881 [S/m]	electrical conductivity, x1 = 0.8954 [S/m]	electrical conductivity, x1 = 0.9112 [S/m]	electrical conductivity, x1 = 0.9275 [S/m]	viscosity, x1 = 0.878 [mPa·s]	viscosity, x1 = 0.8933 [mPa·s]	viscosity, x1 = 0.909 [mPa·s]	viscosity, x1 = 0.9253 [mPa·s]	viscosity, x1 = 0.9422 [mPa·s]
298.15 K	0.0244	0.0231	0.0219	0.0204	0.0191	–	2259	–	–	2495
303.15 K	0.0369	0.0356	0.0339	0.0321	0.0301	1399	1414	1439	1477	–
308.15 K	0.0559	0.0538	0.0521	0.0497	0.0469	–	923	942	966	1000
313.15 K	–	0.0775	–	–	0.0685	617	624	633	650	670
318.15 K	0.112	0.109	0.106	–	–	428	–	–	447	462
323.15 K	0.154	–	–	0.14	0.135	300	306	312	322	–
328.15 K	0.204	–	0.194	0.187	0.182	229	231	234	–	245
333.15 K	0.268	0.261	0.256	–	0.241	–	172.3	174.6	178.4	183
338.15 K	0.342	0.333	0.327	–	–	130.5	131.1	132.4	–	137.2

CCCCCC[n+]1ccccc1.N#C[N-]C#N + O
Details	electrical conductivity, x1 = 0.9076 [S/m]	electrical conductivity, x1 = 0.9239 [S/m]	electrical conductivity, x1 = 0.9408 [S/m]	electrical conductivity, x1 = 0.9582 [S/m]	electrical conductivity, x1 = 0.9762 [S/m]	viscosity, x1 = 0.9152 [mPa·s]	viscosity, x1 = 0.9306 [mPa·s]	viscosity, x1 = 0.9488 [mPa·s]	viscosity, x1 = 0.9665 [mPa·s]	viscosity, x2 = 0.0151 [mPa·s]
298.15 K	0.554	0.532	0.512	–	–	49.3	–	51.8	53.7	–
303.15 K	0.682	0.66	0.642	0.615	0.588	39.19	40.28	41.67	–	45.48
308.15 K	0.817	–	0.769	0.739	0.711	32.18	33.01	34.12	35.44	37.16
313.15 K	0.997	0.958	0.927	0.889	0.839	26.76	27.39	28.15	29.09	30.51
318.15 K	1.17	1.12	–	1.05	1	–	23.12	23.8	–	25.35
323.15 K	1.34	1.29	1.26	1.22	1.17	18.75	19.06	19.48	20.12	21.03
328.15 K	1.52	–	1.42	1.39	–	–	16.38	–	17.36	18.12
333.15 K	1.73	1.68	1.64	1.59	1.55	13.84	14.07	14.44	14.95	15.67
338.15 K	–	1.9	–	1.8	1.75	–	12.38	12.75	13.17	–

CC[n+]1ccccc1.N#C[N-]C#N + O
Details	electrical conductivity, x1 = 0.9285 [S/m]	electrical conductivity, x1 = 0.9414 [S/m]	electrical conductivity, x1 = 0.9545 [S/m]	electrical conductivity, x1 = 0.9681 [S/m]	electrical conductivity, x2 = 0.0181 [S/m]	viscosity, x1 = 0.9353 [mPa·s]	viscosity, x1 = 0.9484 [mPa·s]	viscosity, x1 = 0.9617 [mPa·s]	viscosity, x1 = 0.9754 [mPa·s]	viscosity, x2 = 0.0105 [mPa·s]
298.15 K	2.27	–	2.06	–	1.86	14.98	15.27	15.62	16.02	–
303.15 K	2.46	2.37	–	2.18	2.08	12.98	13.23	13.58	–	14.38
308.15 K	2.75	2.66	–	2.48	2.39	11.41	11.59	11.87	12.17	–
313.15 K	3.05	2.98	2.9	–	2.74	–	10.26	–	10.73	–
318.15 K	3.39	3.33	–	3.18	3.1	8.95	9.11	9.32	9.52	9.75
323.15 K	3.85	3.78	3.7	3.61	3.54	7.77	7.9	8.08	–	8.44
328.15 K	4.34	4.26	4.18	4.08	4.01	7.01	7.13	7.28	–	7.61
333.15 K	–	–	4.7	–	4.48	6.35	6.45	6.58	6.73	6.88
338.15 K	5.47	5.34	5.24	5.11	5.01	–	–	5.98	–	6.22
